Data as given in ChEMBL document CHEMBL3507680, “University of Dundee, Gates Library screen for HepG2 cell viability”.

Assay: Human HepG2 cell viability assay in 384 well format
Type: toxicity, cell-based
Design: dose 125 nL, time 70.5 hour; concentration not given beside the values
Settings: HepG2 cells, read-out: Inhibition
In the case of `CCCc1noc(C2CCCCN2C(=O)C2CCCC2)n1` (stereo not given), the cytotoxicity at 70.5 h is reported as 32.2%. For `c1ccc2c(N3CCSCC3)cnnc2c1`, the cytotoxicity at 70.5 h was -3.97%. For `CC1(C)CC(N2Cc3nc(N4CCCC4)ncc3C2=O)CC(C)(C)N1`, the cytotoxicity at 70.5 h was -13.5%. Work on `CCS(=O)(=O)N1CCCCC1c1nc(CC(C)C)no1` (stereo not given) yielded a cytotoxicity at 70.5 h of -8.14%. `CCc1noc(C2CCCCN2C(=O)c2sccc2C)n1` (stereo not given) gave a cytotoxicity at 70.5 h of 12.2%. Compound `CCCc1noc(C2CCN(C(=O)CCn3nc(C)cc3C)CC2)n1` has a cytotoxicity at 70.5 h of -7%. For `Cc1nn(C)c2cn(CC(=O)NC3CCSCC3)nc12`, the cytotoxicity at 70.5 h was -0.476%. In the case of `COCCNC(=O)Cn1cc2c(n1)c(C)nn2C`, the cytotoxicity at 70.5 h is reported as -9.77%. `Cc1cc2[nH]c(O)nc2cc1NCc1ccccc1` gave a cytotoxicity at 70.5 h of -12.7%. For `CC1CCC(N2Cc3nc(N)ncc3C2=O)CC1` (stereo not given), the cytotoxicity at 70.5 h was -12.4%. `CCc1noc(C2CCCCN2C(=O)c2cc(C)oc2C)n1` (stereo not given) gave a cytotoxicity at 70.5 h of 11.6%. Compound `Cc1ccc(CN(C)CC2(O)CCCN(C)C2)o1` (stereo not given) has a cytotoxicity at 70.5 h of -2.94%. `CCn1nc(C)c2nn(CC(=O)NC3CCSCC3)cc21` showed a cytotoxicity at 70.5 h of 6.6%. `Cc1nc2[nH]cnc(Nc3ccn(C)n3)c-2n1` showed a cytotoxicity at 70.5 h of -4.89%. `Cn1cc(N2Cc3nc(N4CCOCC4)ncc3C2=O)cn1` showed a cytotoxicity at 70.5 h of -6.6%. Compound `CCn1cc(N2Cc3nc(N4CCCC4)ncc3C2=O)cn1` has a cytotoxicity at 70.5 h of 0.0553%. `O=C(NCCCn1cccn1)c1nnc2ccccc2n1` showed a cytotoxicity at 70.5 h of 2.8%. Compound `CCn1nc(C)c(CNC(=O)c2nnc3ccc(OC)cc3n2)c1C` has a cytotoxicity at 70.5 h of -3.67%. `COc1ccc2nnc(C(=O)NCC3CCCC3)nc2c1` showed a cytotoxicity at 70.5 h of -4.54%. With `C=CNC(=O)c1nnc2ccc(N3CCOCC3)cc2n1` the cytotoxicity at 70.5 h was -10.8%. For `CN(C)c1ncc2c(n1)CN(C1CC(C)(C)NC(C)(C)C1)C2=O`, the cytotoxicity at 70.5 h was -6.77%. In the case of `CC1CCN(c2ncc3c(n2)CN(Cc2cccc(F)c2)C3=O)CC1`, the cytotoxicity at 70.5 h is reported as -0.149%. Compound `CCn1nc(C)c(NC(=O)c2cc(NC(=O)C3CC3)n(C)n2)c1C` has a cytotoxicity at 70.5 h of -5.29%. Compound `Cc1ccc(CNC(=O)c2cc(NC(=O)C3CC3)n(C)n2)o1` has a cytotoxicity at 70.5 h of -7.15%. Work on `CCn1nccc1CNc1nc(N)nc2c1nc(C)n2C` yielded a cytotoxicity at 70.5 h of 6.56%. Compound `Cc1nn(C)c2cn(C(C)C(=O)NCc3ccccn3)nc12` (stereo not given) has a cytotoxicity at 70.5 h of -11.2%. `CC1CCN(C(=O)c2cc(NC(=O)c3ccccc3)n(C)n2)CC1` showed a cytotoxicity at 70.5 h of -14.1%. In the case of `Cn1nc(C(=O)N2CCCCCC2)cc1NC(=O)c1ccccc1`, the cytotoxicity at 70.5 h is reported as -9.93%. Compound `CC(=O)OCc1ccc(CN2CCCCCC2c2cc(C)no2)o1` (stereo not given) has a cytotoxicity at 70.5 h of 24.7%. With `Cn1cccc1C(=O)N1CCCCC1c1ccn2ccnc2n1` (stereo not given) the cytotoxicity at 70.5 h was -1.33%. In the case of `CCc1noc(CCC(=O)N[C@@H]2CC[C@@H](n3ccnc3C)[C@@H]2O)n1`, the cytotoxicity at 70.5 h is reported as -1.14%. For `CCc1noc(CCC(=O)N[C@@H]2CC[C@@H](n3ccnc3)[C@@H]2O)n1`, the cytotoxicity at 70.5 h was -8.61%. `COc1ccccc1Oc1cncc(C2CCCN(CC(N)=O)C2)n1` (stereo not given) gave a cytotoxicity at 70.5 h of 11.9%. In the case of `CC1(C2CCN(CC(N)=O)CC2)CN(Cc2ccccc2)C(=O)CO1` (stereo not given), the cytotoxicity at 70.5 h is reported as -6.63%. In the case of `CNC(=O)CN1CCC2(CC1)C[C@@H](O)[C@H](c1ccccc1)NC2=O`, the cytotoxicity at 70.5 h is reported as -4.55%. `CC(C)N1CCC2(CC1)C[C@@H](O)[C@H](c1ccccc1)NC2=O` showed a cytotoxicity at 70.5 h of 9.43%. `C[C@]1(O)CCN(Cc2ncccc2F)C[C@@H]1Oc1cccc(F)c1` gave a cytotoxicity at 70.5 h of -3.05%. `O[C@@H]1CN(Cc2cnccn2)C[C@H]1Oc1ccccc1` showed a cytotoxicity at 70.5 h of -6.26%. For `Cc1nccc(C2CCCCN2Cc2ccccc2)n1` (stereo not given), the cytotoxicity at 70.5 h was -5%. Compound `CNC(=O)c1cn[nH]c1C1CCN(Cc2ccccc2OC)C1` (stereo not given) has a cytotoxicity at 70.5 h of -8.12%. For `Cc1noc(C)c1-c1cccc(C2CCCNC2)n1` (stereo not given), the cytotoxicity at 70.5 h was 2.18%. For `Oc1nc(N2CCCC2)nc2c1CCN(Cc1ccsc1)CC2`, the cytotoxicity at 70.5 h was -8.09%. `Cn1cc(C(=O)N2CCCC(Cc3cncc4ccccc34)C2)cn1` (stereo not given) showed a cytotoxicity at 70.5 h of -1.78%. `Cc1cc(C)nc(C2CCN(C(=O)CCn3nnc4ccccc43)C2)n1` (stereo not given) showed a cytotoxicity at 70.5 h of -6.12%. With `CCCn1nccc1-c1cc(C2CCN(S(C)(=O)=O)CC2)ccn1` the cytotoxicity at 70.5 h was -6.09%. Work on `Cc1noc(C)c1-c1cc(C2CCNCC2)ccn1` yielded a cytotoxicity at 70.5 h of 3.08%. `NC(=O)c1cc2c(nc1N)CCN(C(=O)C1CCCCC1)C2` showed a cytotoxicity at 70.5 h of 7.07%. In the case of `CCc1nccn1-c1nccnc1C1CCN(C(=O)COC)CC1`, the cytotoxicity at 70.5 h is reported as 14.8%. With `Cc1cc(N)nc(C2(C)CCCN2C(=O)Cc2ccc(F)cc2)n1` (stereo not given) the cytotoxicity at 70.5 h was -8.7%. In the case of `CCC(=O)N1CCC(c2nc3c(c(NC)n2)CN(C)CC3)C1` (stereo not given), the cytotoxicity at 70.5 h is reported as -9.93%. Work on `Cc1ncc(CN2CCOC(c3ccc(-c4ccccc4F)cn3)C2)s1` (stereo not given) yielded a cytotoxicity at 70.5 h of 49.2%. `Cc1noc(C)c1-c1ccc(C2CCCN2C(=O)c2ccncn2)nc1` (stereo not given) gave a cytotoxicity at 70.5 h of 27.1%. With `Cc1cccnc1Nc1nccc(C2CN(CC(N)=O)C2)n1` the cytotoxicity at 70.5 h was -3.23%. For `NC(=O)CN1CCCC(Cc2ccc(N3CCOCC3)nn2)C1` (stereo not given), the cytotoxicity at 70.5 h was -0.993%. With `Cc1cccc(C2CCN(S(=O)(=O)c3cn(C)cn3)CC2)n1` the cytotoxicity at 70.5 h was -8.21%. Work on `CN(C)C(=O)CN1CCCC(Cc2ccc(N3CCCC3)nn2)C1` (stereo not given) yielded a cytotoxicity at 70.5 h of -9.12%. For `COCCn1cnnc1C1CCCN(C(C)C)C1` (stereo not given), the cytotoxicity at 70.5 h was 17.1%. `c1ccc(N2CCOC(Cc3cccnc3)C2)cc1` (stereo not given) showed a cytotoxicity at 70.5 h of -7.14%. `Cc1cc(N2CCCC2c2nc(C)cc(CCC(=O)O)n2)ncn1` (stereo not given) showed a cytotoxicity at 70.5 h of -9.37%. For `Cc1ccnc(C2CCN(S(=O)(=O)c3cn(C)cn3)CC2)n1`, the cytotoxicity at 70.5 h was -9.62%. Compound `CN(C)C(=O)c1cn[nH]c1C1(C)CCCN(Cc2ccccn2)C1` (stereo not given) has a cytotoxicity at 70.5 h of -1.05%. Work on `Nc1nccnc1C1CN(C(=O)c2ccc3c(c2)OCO3)CCO1` (stereo not given) yielded a cytotoxicity at 70.5 h of -13.9%. `O=C(O)COCC(=O)NC1CC2(CCCCC2)Oc2ccccc21` (stereo not given) showed a cytotoxicity at 70.5 h of 18.3%. `Cc1noc(C)c1-c1nc(N(C)C)ncc1-c1cnccn1` showed a cytotoxicity at 70.5 h of -5.02%. `Cc1noc(C)c1-c1nc(NCCN(C)C)ncc1-c1cnccn1` gave a cytotoxicity at 70.5 h of -6.59%. For `c1cncc(CC2CN(c3cccnc3)CCO2)c1` (stereo not given), the cytotoxicity at 70.5 h was -6.99%. Compound `CN1CCN(C(=O)C2CCN(c3cccnn3)C2)CC1` (stereo not given) has a cytotoxicity at 70.5 h of -6.3%. `CC(=O)N1CCN(C(=O)C2CCN(c3cccnn3)C2)CC1` (stereo not given) showed a cytotoxicity at 70.5 h of -0.877%. `CNC(=O)c1ccc(C2CCCN(C(=O)c3sc(C)nc3C)C2)nc1` (stereo not given) showed a cytotoxicity at 70.5 h of 2.08%. For `CC(=O)N1CCc2nc(C3CCN(c4ncccn4)C3)ncc2C1` (stereo not given), the cytotoxicity at 70.5 h was -0.395%. In the case of `CCCc1ncc(CNC2(c3ccc(Cl)cc3)CC2)cn1`, the cytotoxicity at 70.5 h is reported as -4.1%. Compound `CCc1ccccc1Nc1noc2c1CN(C(=O)CNC(C)=O)CC2` has a cytotoxicity at 70.5 h of 6.37%. Work on `Cc1nc(C2CCCN2C(=O)Cc2ccc3c(c2)OCO3)nc(O)c1C` (stereo not given) yielded a cytotoxicity at 70.5 h of -5.28%. For `CCN(Cc1nc(-c2ccco2)no1)Cc1cccc2c1OCO2`, the cytotoxicity at 70.5 h was -3.24%. For `COC(C)c1cccc(NCc2cccc(O)c2)c1` (stereo not given), the cytotoxicity at 70.5 h was -4%. With `O=C(c1ccccc1F)N(CCCO)S(=O)(=O)c1cccs1` the cytotoxicity at 70.5 h was -9.23%. `Cc1cc(C)n(CC2CCCN2Cc2ccc(F)cc2C#N)n1` (stereo not given) showed a cytotoxicity at 70.5 h of -4.46%. In the case of `Cc1ccc(N2CCC(NC(C)c3cccs3)CC2)nc1` (stereo not given), the cytotoxicity at 70.5 h is reported as -2.5%. Compound `CC(Cc1ccco1)NC(=O)NCc1ncnn1C` (stereo not given) has a cytotoxicity at 70.5 h of 3.51%. `NC(=O)c1ccc(C2CCCNC2)nc1` (stereo not given) showed a cytotoxicity at 70.5 h of -4.69%. `Cc1ccc(-c2ccc(CC3NCCN(C)C3=O)cc2)cc1` (stereo not given) gave a cytotoxicity at 70.5 h of 20.9%. In the case of `c1cn(-c2cnc(C3CCCNC3)cn2)cn1` (stereo not given), the cytotoxicity at 70.5 h is reported as 22.8%. Work on `CN1CCNC(Cc2ccc(-c3ccncc3)cc2)C1=O` (stereo not given) yielded a cytotoxicity at 70.5 h of -5.04%. Compound `c1cn(-c2cnc(C3CCNCC3)cn2)cn1` has a cytotoxicity at 70.5 h of -10.7%. `O=C(CN1CCC(c2cc(=O)n3c(n2)CCCCC3)C1)N1CCCCC1` (stereo not given) gave a cytotoxicity at 70.5 h of -8.93%.
